Measured values: US20230085307A1, “PYRIDAZINONE COMPOUND AND HERBICIDE” (NISSAN CHEMICAL CORPORATION, priority 2019, published 2023)

Columns and labels:
barnyard grass [1] = assay: Test Example 3: herbicidal effect by foliage application, Wagner pot (Table 18, symbol H); assay type: in vivo, barnyard grass (Echinochloa crus-galli); conditions: amount of applied herbicide 320 g/ha
Method in brief: (§1)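 Plants were sown in alluvial soil held under 0.1–0.5 cm standing water and grown 14 days in a greenhouse at 25–30 °C. An emulsifiable formulation, water-diluted to the set dose, was then sprayed onto the foliage, and effects were scored three weeks later using previously defined criteria.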

wild oat = assay: Test Example 4: herbicidal effect by soil treatment (Table 19, symbol I); assay type: in vivo, wild oat (Avena fatua); conditions: amount of applied herbicide 320 g/ha
Method in brief: (§2)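 Herbicidal effect was rated 3 weeks after treatment, using the scoring criteria of an earlier test. The compound, formulated as an emulsion and diluted in water to a set herbicide amount, had been sprayed uniformly on soil over freshly sown seeds. Growth took place in a greenhouse at 25° C. to 30° C.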

late watergrass [2] = assay: Test Example 2: herbicidal activity, application during weed generation under submerged conditions (Table 17, symbol A); assay type: in vivo, late watergrass (Echinochloa oryzicola); conditions: AAH 320 g/ha; application during weed generation, submerged conditions
Method in brief: (§3)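 Wagner pot, alluvial soil, 4 cm flood; mixed sowing of all species; greenhouse 25° C.–30° C. Emulsifiable formulation, water-diluted to predetermined dose, applied to paddy water at 1–2 leaf stage. Effect rated at 3 wk using the earlier test's scoring criteria.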

rice flat sedge = assay: Test Example 3: herbicidal effect by foliage application, Wagner pot (Table 18, symbol E); assay type: in vivo, rice flat sedge (Cyperus iria); conditions: amount of applied herbicide 320 g/ha
Method in brief: as §1

barnyard grass [3] = assay: Test Example 4: herbicidal effect by soil treatment (Table 19, symbol H); assay type: in vivo, barnyard grass (Echinochloa crus-galli); conditions: amount of applied herbicide 320 g/ha
Method in brief: as §2

Japanese bulrush [4] = assay: Test Example 1: herbicidal activity, application before weed generation under submerged conditions (Table 16, symbol B); assay type: in vivo, Japanese bulrush (Schoenoplectus juncoides); conditions: 320 g/ha applied herbicide
Method in brief: (§4)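 Submerged Wagner pots (alluvial soil, 4 cm water) sown with weed seeds and planted with 2.5-leaf rice seedlings; emulsifiable concentrate diluted in water applied to water surface on sowing day. Held in greenhouse at 25-30 °C; injury scored 0-5 by herbicidal rate after three weeks.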

oval-leafed pondweed [5] = assay: Test Example 1: herbicidal activity, application before weed generation under submerged conditions (Table 16, symbol C); assay type: in vivo, oval-leafed pondweed (Monochoria vaginalis); conditions: 320 g/ha applied herbicide
Method in brief: as §4

southern crabgrass = assay: Test Example 4: herbicidal effect by soil treatment (Table 19, symbol F); assay type: in vivo, southern crabgrass (Digitaria ciliaris); conditions: amount of applied herbicide 320 g/ha
Method in brief: as §2

blackgrass = assay: Test Example 4: herbicidal effect by soil treatment (Table 19, symbol J); assay type: in vivo, blackgrass (Alopecurus myosuroides); conditions: amount of applied herbicide 320 g/ha
Method in brief: as §2

chickweed = assay: Test Example 4: herbicidal effect by soil treatment (Table 19, symbol P); assay type: in vivo, common chickweed (Stellaria media); conditions: amount of applied herbicide 320 g/ha
Method in brief: as §2

windgrass = assay: Test Example 4: herbicidal effect by soil treatment (Table 19, symbol L); assay type: in vivo, windgrass (Apera spica-venti); conditions: amount of applied herbicide 320 g/ha
Method in brief: as §2

redroot pigweed = assay: Test Example 4: herbicidal effect by soil treatment (Table 19, symbol N); assay type: in vivo, redroot pigweed (Amaranthus retroflexus); conditions: amount of applied herbicide 320 g/ha
Method in brief: as §2

oval-leafed pondweed [6] = assay: Test Example 2: herbicidal activity, application during weed generation under submerged conditions (Table 17, symbol C); assay type: in vivo, oval-leafed pondweed (Monochoria vaginalis); conditions: AAH 320 g/ha; application during weed generation, submerged conditions
Method in brief: as §3

Chinese sprangletop = assay: Test Example 3: herbicidal effect by foliage application, Wagner pot (Table 18, symbol D); assay type: in vivo, chinese sprangletop (Leptochloa chinensis); conditions: amount of applied herbicide 320 g/ha
Method in brief: as §1

Japanese bulrush [7] = assay: Test Example 2: herbicidal activity, application during weed generation under submerged conditions (Table 17, symbol B); assay type: in vivo, Japanese bulrush (Schoenoplectus juncoides); conditions: AAH 320 g/ha; application during weed generation, submerged conditions
Method in brief: as §3

persian speedwell = assay: Test Example 4: herbicidal effect by soil treatment (Table 19, symbol R); assay type: in vivo, Persian speedwell (Veronica persica); conditions: amount of applied herbicide 320 g/ha
Method in brief: as §2

Italian ryegrass = assay: Test Example 4: herbicidal effect by soil treatment (Table 19, symbol K); assay type: in vivo, Italian ryegrass (Lolium multiflorum); conditions: amount of applied herbicide 320 g/ha
Method in brief: as §2

lambsquarters = assay: Test Example 4: herbicidal effect by soil treatment (Table 19, symbol O); assay type: in vivo, lambsquarters (Chenopodium album); conditions: amount of applied herbicide 320 g/ha
Method in brief: as §2

late watergrass [8] = assay: Test Example 1: herbicidal activity, application before weed generation under submerged conditions (Table 16, symbol A); assay type: in vivo, late watergrass (Echinochloa oryzicola); conditions: 320 g/ha applied herbicide
Method in brief: as §4

green foxtail = assay: Test Example 4: herbicidal effect by soil treatment (Table 19, symbol G); assay type: in vivo, green foxtail (Setaria viridis); conditions: amount of applied herbicide 320 g/ha
Method in brief: as §2

velvetleaf = assay: Test Example 4: herbicidal effect by soil treatment (Table 19, symbol M); assay type: in vivo, velvetleaf (Abutilon theophrasti); conditions: amount of applied herbicide 320 g/ha
Method in brief: as §2

## Cc1nn(C)c(=O)c(-c2c(-c3ccc(F)c(Cl)c3)sc3ccc(F)cc23)c1O [2-352]
Barnyard grass [1]
  herbicidal effect on H: barnyard grass: 5 (Herbicidal rate of 90% or more (almost completely withered))
Wild oat
  herbicidal effect, I: wild oat: 0 (Herbicidal rate of 5% or less (almost no effect))
Late watergrass [2]
  herbicidal effect rating, A: late watergrass: 0 (Herbicidal rate of 5% or less (almost no effect))
Rice flat sedge
  herbicidal effect on E: rice flat sedge: 5 (Herbicidal rate of 90% or more (almost completely withered))
Barnyard grass [3]
  herbicidal effect, H: barnyard grass: 3 (Herbicidal rate of 40% or more and less than 70%)
Japanese bulrush [4]
  Herbicidal effect on B: Japanese bulrush (grade 0-5): 2 (Herbicidal rate of 20% or more and less than 40%)
oval-leafed pondweed [5]
  Herbicidal effect on C: oval-leafed pondweed (grade 0-5): 2 (Herbicidal rate of 20% or more and less than 40%)
Southern crabgrass
  herbicidal effect, F: southern crabgrass: 2 (Herbicidal rate of 20% or more and less than 40%)
blackgrass
  herbicidal effect, J: blackgrass: 0 (Herbicidal rate of 5% or less (almost no effect))
chickweed
  herbicidal effect, P: chickweed: 3 (Herbicidal rate of 40% or more and less than 70%)
windgrass
  herbicidal effect, L: windgrass: 0 (Herbicidal rate of 5% or less (almost no effect))
Redroot pigweed
  herbicidal effect, N: redroot pigweed: 5 (Herbicidal rate of 90% or more (almost completely withered))
oval-leafed pondweed [6]
  herbicidal effect rating, C: oval-leafed pondweed: 0 (Herbicidal rate of 5% or less (almost no effect))
Chinese sprangletop
  herbicidal effect on D: Chinese sprangletop: 5 (Herbicidal rate of 90% or more (almost completely withered))
Japanese bulrush [7]
  herbicidal effect rating, B: Japanese bulrush: 2 (Herbicidal rate of 20% or more and less than 40%)
Persian speedwell
  herbicidal effect, R: persian speedwell: 4 (Herbicidal rate of 70% or more and less than 90%)
Italian ryegrass
  herbicidal effect, K: Italian ryegrass: 4 (Herbicidal rate of 70% or more and less than 90%)
lambsquarters
  herbicidal effect, O: lambsquarters: 4 (Herbicidal rate of 70% or more and less than 90%)
Late watergrass [8]
  Herbicidal effect on A: late watergrass (grade 0-5): 3 (Herbicidal rate of 40% or more and less than 70%)
Green foxtail
  herbicidal effect, G: green foxtail: 4 (Herbicidal rate of 70% or more and less than 90%)
velvetleaf
  herbicidal effect, M: velvetleaf: 3 (Herbicidal rate of 40% or more and less than 70%)
